This experiment concerns β-catenin accumulation in the nucleus of murine C3H/10T1/2 cells. The experiment is described as follows: Cellular beta-catenin stabilisation assay, Test (b). The class given is cell-based. Conditions: Mus musculus, 24 hours, read-out: EC50 versus cellular β-catenin accumulation in the nucleus of murine C3H/10T1/2 cells. The procedure: This assay uses an imaging based approach to measure the ability of test compounds to promote Beta-catenin stabilisation in the nucleus of C3H10T1/2 cells. Beta-catenin stabilisation is an indicator of GSK3β inhibition.
A C3H10T1/2 mouse clone 8 fibroblast cell line (American Type Culture Collection (ATCC, USA; catalogue number CRL 226) was routinely maintained at 37° C. with 5% CO2 in Basal Medium Eagle (BME, Invitrogen; Paisley, UK; catalogue number 41010) containing 10% (v/v) foetal bovine serum (FBS, Invitrogen, Paisley; UK; catalogue number 10270) and 2 mM L-glutamine (Invitrogen, Paisley, UK; catalogue number 25030024). For the assay, the cells were detached from the culture flask with ‘Accutase’ (Innovative Cell Technologies Inc., San Diego, USA; catalogue number AT104) using standard tissue culture methods and re-suspended in assay media comprising of BME containing 5% (v/v) FBS and 2 mM L-glutamine to give 55,555 cells per ml. Then, 90 μl of this solution was seeded into each well of a clear-bottom 96 well tissue culture plate (Perkin Elmer Viewplate; catalogue number 6005182) using a Multidrop Combi Dispenser (Thermo Fisher Scientific, Loughborough, UK) to give 5,000 cells per well. Plates were incubated overnight at 37° C. with 5% CO2 to allow the cells to adhere to the wells. Test compounds were prepared as 10 mM stock solutions in dimethylsulphoxide (DMSO) (Sigma-Aldrich; Poole, UK, catalogue number 49442-9) and serially diluted in DMSO. A Multidrop Combi was used to dispense 245 μl of pre-warmed assay media into a 96 well plate (Thermo Fisher Scientific, Loughborough, UK; catalogue number 50823925) before 5 μl of serially diluted compound was added to this intermediate plate. After mixing, 10 μl of each compound concentration was added to the cell plates. The total dilution factor from DMSO stock was 500 times. Control cells received either DMSO (0.2% v/v final concentration) or 10 μM positive control compound. The cells were incubated for 24 hours at 37° C. with 5% CO2.
After compound treatment the cells were fixed by the addition of 100 μl of 8% w/v paraformaldehyde (Sigma-Aldrich, Poole, UK; catalogue number P6148), directly into the assay plate wells. The cells were incubated at ambient temperature with fixative for 30 minutes before washing 3 times with 100 μl phosphate-buffered saline (PBS, Sigma-Aldrich; catalogue number D8537). […] The cells were then washed 3 times in 100 μl of PBS before the plates were sealed ready for image capture. Fluorescent images were captured and quantified using the Incell Analyser 3000 (GE Healthcare, USA). […]

Where a name gives a salt, the structure may show the parent alone.

As for `COCCCNCCCc1ccc(-c2cnc(N)c(C(=O)Nc3cccnc3)n2)cc1` [Example 1, 3-Amino-6-(4-{3-[(3-methoxypropyl)amino]propyl}phenyl)-N-pyridin-3-ylpyrazine-2-carboxamide tri-hydrochloride], the EC50 is ~242 nM.

For the origin of these results see patent US8198285B2, “Pyrazine derivatives” (Astrazeneca AB, priority 2010, dated 2012).
